One assay deals with rat intestinal maltase. Put plainly: In vitro α-glucosidase inhibition assay, rat intestinal maltase. In kind it is biochemical. The conditions noted are these: rat small intestinal brush border membrane vesicles; maltose substrate; mean ± SD (n = 3); read-out: IC50 against maltase. As to the method:
(§1) The testing method previously described was modified and used. Thus, rat small intestinal brush border membrane vesicles were first prepared, and its suspension in 0.1 M maleate buffer (pH = 6.0) was used as small intestinal α-glucosidases of maltase and sucrase. A test compound was dissolved in dimethylsulfoxide (DMSO), and the resulting solution was diluted with 0.1 M maleate buffer to prepare the test compound solution (concentration of DMSO: 10%). The substrate solution in maleate buffer ([…], 50 μL), a test compound solution (25 μL), and the enzyme solution (25 μL) were mixed and incubated at 37 °C for 30 min. After incubation, the solution was immediately heated by boiling water for 2 min to stop the reaction, and the solution was mixed with water (150 μL). Glucose concentration was determined by the glucose-oxidase method. […] The IC50 value was determined graphically by a plot of percent inhibition versus log of the test compound.

The target in a further assay is T1, rat intestinal sucrase (Rattus norvegicus, UniProt P23739).
T1 construct: rat small intestinal brush border membrane vesicles were first prepared; from tissue; host or cells: rat small intestine, brush border membrane vesicles
Put plainly: In vitro α-glucosidase inhibition assay, rat intestinal sucrase. In kind it is biochemical. As to the method: as §1

Setting [1] is: rat small intestinal brush border membrane vesicles, sucrose substrate, mean ± SD (n = 3), read-out: IC50 against sucrase.

Where two headings read alike, the source gives them in different places.

T1 sequence (P23739 whole entry): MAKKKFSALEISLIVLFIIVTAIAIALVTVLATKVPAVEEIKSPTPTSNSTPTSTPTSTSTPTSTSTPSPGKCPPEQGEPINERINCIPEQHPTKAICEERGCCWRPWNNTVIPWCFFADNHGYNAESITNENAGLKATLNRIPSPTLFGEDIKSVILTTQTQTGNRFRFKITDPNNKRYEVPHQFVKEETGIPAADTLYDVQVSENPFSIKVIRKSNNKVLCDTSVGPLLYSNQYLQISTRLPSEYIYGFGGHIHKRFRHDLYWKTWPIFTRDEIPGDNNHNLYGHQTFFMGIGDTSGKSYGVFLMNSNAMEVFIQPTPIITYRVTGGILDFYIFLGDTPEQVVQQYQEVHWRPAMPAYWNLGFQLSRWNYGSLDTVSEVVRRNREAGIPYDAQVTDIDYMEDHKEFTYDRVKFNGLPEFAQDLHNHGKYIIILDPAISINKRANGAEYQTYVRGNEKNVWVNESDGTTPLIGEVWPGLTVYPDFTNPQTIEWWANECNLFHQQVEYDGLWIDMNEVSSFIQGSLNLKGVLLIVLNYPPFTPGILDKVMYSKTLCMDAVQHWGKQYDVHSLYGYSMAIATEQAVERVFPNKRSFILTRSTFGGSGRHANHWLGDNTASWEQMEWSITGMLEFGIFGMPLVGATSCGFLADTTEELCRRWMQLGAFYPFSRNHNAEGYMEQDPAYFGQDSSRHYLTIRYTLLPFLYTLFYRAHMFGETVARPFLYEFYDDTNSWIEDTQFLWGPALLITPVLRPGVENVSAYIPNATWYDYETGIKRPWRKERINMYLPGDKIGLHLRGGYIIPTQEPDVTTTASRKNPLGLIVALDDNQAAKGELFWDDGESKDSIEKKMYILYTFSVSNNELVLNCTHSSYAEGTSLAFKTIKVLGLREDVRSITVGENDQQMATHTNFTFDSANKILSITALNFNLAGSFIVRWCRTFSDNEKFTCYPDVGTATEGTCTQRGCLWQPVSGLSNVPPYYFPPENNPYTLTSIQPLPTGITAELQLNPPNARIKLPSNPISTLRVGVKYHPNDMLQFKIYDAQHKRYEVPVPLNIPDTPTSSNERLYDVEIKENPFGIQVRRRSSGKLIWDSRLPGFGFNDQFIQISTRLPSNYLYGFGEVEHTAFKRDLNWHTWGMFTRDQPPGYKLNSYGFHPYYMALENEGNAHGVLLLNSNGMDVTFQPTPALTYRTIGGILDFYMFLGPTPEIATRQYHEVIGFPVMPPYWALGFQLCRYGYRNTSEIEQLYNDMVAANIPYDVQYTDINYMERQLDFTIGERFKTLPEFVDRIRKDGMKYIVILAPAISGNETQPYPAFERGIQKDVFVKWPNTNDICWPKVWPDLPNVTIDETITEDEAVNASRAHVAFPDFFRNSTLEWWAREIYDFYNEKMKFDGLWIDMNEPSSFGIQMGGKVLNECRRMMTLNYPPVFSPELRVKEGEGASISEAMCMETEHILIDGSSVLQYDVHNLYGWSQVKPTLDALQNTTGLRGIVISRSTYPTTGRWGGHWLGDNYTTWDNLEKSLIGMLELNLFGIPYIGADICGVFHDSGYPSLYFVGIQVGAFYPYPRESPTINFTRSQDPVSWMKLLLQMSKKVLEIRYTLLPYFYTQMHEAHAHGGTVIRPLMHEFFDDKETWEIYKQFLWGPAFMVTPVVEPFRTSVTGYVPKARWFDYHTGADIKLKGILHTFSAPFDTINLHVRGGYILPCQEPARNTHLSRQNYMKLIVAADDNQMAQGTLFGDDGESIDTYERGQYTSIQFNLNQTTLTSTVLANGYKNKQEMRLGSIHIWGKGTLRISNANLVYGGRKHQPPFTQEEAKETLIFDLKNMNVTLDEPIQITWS

As for `OCC1C(O)C(O)C[S+]1CC(O)C1OC(c2cccc(Cl)c2Cl)OCC1O` [19a, 1,4-Dideoxy-1,4-[(R)-(5-deoxy-1,3-O-(2,3-dichlorobenzylidene)-D-arabinitol-5-yl)episulfoniumylidene]-D-arabinitol chloride], the IC50 (in general, the point on the concentration scale where inhibition reaches its midpoint) on rat intestinal maltase worked out at 0.5 ± 0.08 µM; at rat intestinal sucrase (setting [1]) it was 1.6 ± 0.43 µM.

For the molecule `OCC1C(O)C(O)C[S+]1CC(O)C1OC(c2ccc(Cl)cc2Cl)OCC1O` [19b, 1,4-Dideoxy-1,4-[(R)-(5-deoxy-1,3-O-(2,4-dichlorobenzylidene)-D-arabinitol-5-yl)episulfoniumylidene]-D-arabinitol chloride], the IC50 on rat intestinal maltase came to 2 ± 0.08 µM; on rat intestinal sucrase (setting [1]), 1.2 ± 0.23 µM.

Take `OCC1C(O)C(O)C[S+]1CC(O)C1OC(c2cc(Cl)ccc2Cl)OCC1O` [19c, 1,4-Dideoxy-1,4-[(R)-(5-deoxy-1,3-O-(2,5-dichlorobenzylidene)-D-arabinitol-5-yl)episulfoniumylidene]-D-arabinitol chloride]: the figures for the IC50 on rat intestinal maltase and at rat intestinal sucrase (setting [1]) were 0.55 ± 0.05 µM and 0.8 ± 0.12 µM, respectively.

For the molecule `OCC1C(O)C(O)C[S+]1CC(O)C1OC(c2cccc(F)c2Cl)OCC1O` [19d, 1,4-Dideoxy-1,4-[(R)-(5-deoxy-1,3-O-(2-chloro-3-fluorobenzylidene)-D-arabinitol-5-yl)episulfoniumylidene]-D-arabinitol chloride], the IC50 at rat intestinal maltase was 1 ± 0.05 µM; on rat intestinal sucrase (setting [1]), 0.7 ± 0.13 µM.

As for `OCC1C(O)C(O)C[S+]1CC(O)C1OC(c2cc(F)ccc2Cl)OCC1O` [19e, 1,4-Dideoxy-1,4-[(R)-(5-deoxy-1,3-O-(2-chloro-5-fluorobenzylidene)-D-arabinitol-5-yl)episulfoniumylidene]-D-arabinitol chloride], at rat intestinal sucrase (setting [1]), the IC50 came to 6.6 ± 0.45 µM.

As for `OCC1C(O)C(O)C[S+]1CC(O)C1OC(c2ccc(Cl)c(Cl)c2)OCC1O` [19f, 1,4-Dideoxy-1,4-[(R)-(5-deoxy-1,3-O-(3,4-dichlorobenzylidene)-D-arabinitol-5-yl)episulfoniumylidene]-D-arabinitol chloride], the IC50 on rat intestinal maltase stood at 5 ± 0.39 µM; on rat intestinal sucrase (setting [1]) it was 4.6 ± 0.09 µM.

Turning to `OCC1C(O)C(O)C[S+]1CC(O)C1OC(c2cc(Cl)cc(Cl)c2)OCC1O` [19g, 1,4-Dideoxy-1,4-[(R)-(5-deoxy-1,3-O-(3,5-dichlorobenzylidene)-D-arabinitol-5-yl)episulfoniumylidene]-D-arabinitol chloride], the concentration for half-maximal inhibition (IC50) is 4.9 ± 0.25 µM on rat intestinal maltase and 5.5 ± 0.62 µM on rat intestinal sucrase (setting [1]).

Take `OCC1C(O)C(O)C[S+]1CC(O)C1OC(c2cc(F)cc(Cl)c2)OCC1O` [19h, 1,4-Dideoxy-1,4-[(R)-(5-deoxy-1,3-O-(3-chloro-5-fluorobenzylidene)-D-arabinitol5-yl)episulfoniumylidene]-D-arabinitol chloride]: the results for the IC50 at rat intestinal maltase and on rat intestinal sucrase (setting [1]) were 0.85 ± 0.28 µM and 1.4 ± 0.33 µM, respectively.

On to `OCC1C(O)C(O)C[S+]1CC(O)C1OC(c2cc(C(F)(F)F)cc(C(F)(F)F)c2)OCC1O` [19i, 1,4-Dideoxy-1,4-[(R)-(5-deoxy-1,3-O-(3,5-bis(trifluoromethyl)benzylidene)-D-arabinitol-5-yl)episulfoniumylidene]-D-arabinitol chloride], for which the IC50 is 8.9 ± 0.53 µM at rat intestinal maltase and 10 ± 1.8 µM on rat intestinal sucrase (setting [1]).

As for `O=[N+]([O-])c1ccc(F)cc1C1OCC(O)C(C(O)C[S+]2CC(O)C(O)C2CO)O1` [19j, 1,4-Dideoxy-1,4-[(R)-(5-deoxy-1,3-O-(5-fluoro-2-nitrobenzylidene)-D-arabinitol-5-yl)episulfoniumylidene]-D-arabinitol chloride], the half-maximal inhibitory concentration (IC50) at rat intestinal maltase was 0.75 ± 0.08 µM; on rat intestinal sucrase (setting [1]), 1.5 ± 0.21 µM.

With `OCC1C(O)C(O)C[S+]1CC(O)C1OC(c2ccccc2Br)OCC1O` [19k, 1,4-Dideoxy-1,4-[(R)-(5-deoxy-1,3-O-(o-bromobenzylidene)-D-arabinitol-5-yl)episulfoniumylidene]-D-arabinitol chloride], the IC50 is 1.9 ± 0.08 µM on rat intestinal maltase and 1.1 ± 0.02 µM at rat intestinal sucrase (setting [1]).

Consider `OCC1C(O)C(O)C[S+]1CC(O)C1OC(c2cccc(Br)c2)OCC1O` [19l, 1,4-Dideoxy-1,4-[(R)-(5-deoxy-1,3-O-(m-bromobenzylidene)-D-arabinitol-5-yl)episulfoniumylidene]-D-arabinitol chloride], for which the half-inhibitory concentration (IC50) was found to be 9.7 ± 0.74 µM on rat intestinal maltase and 7.9 ± 1.6 µM at rat intestinal sucrase (setting [1]).

Take `OCC1C(O)C(O)C[S+]1CC(O)C1OC(c2ccc(Br)cc2)OCC1O` [19m, 1,4-Dideoxy-1,4-[(R)-(5-deoxy-1,3-O-(p-bromobenzylidene)-D-arabinitol-5-yl)episulfoniumylidene]-D-arabinitol chloride]: the IC50 at rat intestinal maltase is 4.1 ± 0.08 µM; on rat intestinal sucrase (setting [1]) it was 3.5 ± 0.06 µM.

On to `OCC1C(O)C(O)C[S+]1CC(O)C1OC(c2ccccc2I)OCC1O` [19o, 1,4-Dideoxy-1,4-[(R)-(5-deoxy-1,3-O-(o-iodobenzylidene)-D-arabinitol-5-yl)episulfoniumylidene]-D-arabinitol chloride], for which the IC50 on rat intestinal maltase was 3.1 ± 0.66 µM; at rat intestinal sucrase (setting [1]) it was 3.3 ± 0.28 µM.

Turning to `N#Cc1ccccc1C1OCC(O)C(C(O)C[S+]2CC(O)C(O)C2CO)O1` [19p, 1,4-Dideoxy-1,4-[(R)-(5-deoxy-1,3-O-(o-cyanobenzyliden)-D-arabinitol-5-yl)episulfoniumylidene]-D-arabinitol chloride], the IC50 at rat intestinal maltase was 0.88 ± 0.04 µM; on rat intestinal sucrase (setting [1]), 0.9 ± 0.05 µM.

Regarding `OCC1C(O)C(O)C[S+]1CC(O)C1OC(c2cccc3ccccc23)OCC1O` [19q, 1,4-Dideoxy-1,4-[(R)-(5-deoxy-1,3-O-(1-naphthalene)-D-arabinitol-5-yl)episulfoniumylidene]-D-arabinitol chloride], the IC50 on rat intestinal maltase is 4.6 ± 0.37 µM; on rat intestinal sucrase (setting [1]), 5.8 ± 0.41 µM.

With `OCC1C(O)C(O)C[S+]1CC(O)C1OC(c2ccccc2-c2ccccc2)OCC1O` [19r, 1,4-Dideoxy-1,4-[(R)-(5-deoxy-1,3-O-(2-phenylbenzylidene)-D-arabinitol-5-yl)episulfoniumylidene]-D-arabinitol chloride], the IC50 was determined as 10.5 ± 1.1 µM at rat intestinal maltase and 3.3 ± 0.22 µM on rat intestinal sucrase (setting [1]).

Take `OC[C@@H]1[C@@H](O)[C@H](O)C[Se@+]1C[C@@H](O)[C@H]1OC(c2ccc(Cl)cc2Cl)OC[C@H]1O` (stereo partly drawn) [20b, (1S,2R,3S,4S)-1-((2S)-2-((4S,5R)-2-(2,4-Dichlorophenyl)-5-hydroxy-1,3-dioxan-4-yl)-2-hydroxyethyl)-3,4-dihydroxy-2-(hydroxymethyl)tetrahydro-1H-selenophen-1-ium chloride]: the figures for the concentration for half-maximal inhibition (IC50) at rat intestinal maltase and against rat intestinal sucrase were 0.26 ± 0.08 µM and 0.22 ± 0.06 µM, respectively.

On to `OC[C@@H]1[C@@H](O)[C@H](O)C[Se@+]1C[C@@H](O)[C@H]1OC(c2cccc(F)c2Cl)OC[C@H]1O` (stereo partly drawn) [20d, (1S,2R,3S,4S)-1-((2S)-2-((4S,5R)-2-(2-Chloro-3-fluorophenyl)-5-hydroxy-1,3-dioxan-4-yl)-2-hydroxyethyl)-3,4-dihydroxy-2-(hydroxymethyl)tetrahydro-1H-selenophen-1-ium chloride], for which the IC50 amounted to 0.62 ± 0.07 µM at rat intestinal maltase and 0.87 ± 0.23 µM against rat intestinal sucrase.

On to `OC[C@@H]1[C@@H](O)[C@H](O)C[Se@+]1C[C@@H](O)[C@H]1OC(c2cc(F)ccc2Cl)OC[C@H]1O` (stereo partly drawn) [20e, (1S,2R,3S,4S)-1-((2S)-2-((4S,5R)-2-(2-Chloro-5-fluorophenyl)-5-hydroxy-1,3-dioxan-4-yl)-2-hydroxyethyl)-3,4-dihydroxy-2-(hydroxymethyl)tetrahydro-1H-selenophen-1-ium chloride], for which the IC50 amounted to 0.45 ± 0.08 µM at rat intestinal maltase and 0.41 ± 0.11 µM at rat intestinal sucrase.

Turning to `OC[C@@H]1[C@@H](O)[C@H](O)C[Se@+]1C[C@@H](O)[C@H]1OC(c2ccc(Cl)c(Cl)c2)OC[C@H]1O` (stereo partly drawn) [20f, (1S,2R,3S,4S)-1-((2S)-2-((4S,5R)-2-(3,4-Dichlorophenyl)-5-hydroxy-1,3-dioxan-4-yl)-2-hydroxyethyl)-3,4-dihydroxy-2-(hydroxymethyl)tetrahydro-1H-selenophen-1-ium chloride], the IC50 came out at 0.47 ± 0.11 µM at rat intestinal maltase and 0.33 ± 0.04 µM against rat intestinal sucrase.

Consider `OC[C@@H]1[C@@H](O)[C@H](O)C[Se@+]1C[C@@H](O)[C@H]1OC(c2cc(Cl)cc(Cl)c2)OC[C@H]1O` (stereo partly drawn) [20g, (1S,2R,3S,4S)-1-((2S)-2-((4S,5R)-2-(3,5-Dichlorophenyl)-5-hydroxy-1,3–dioxan-4-yl)-2-hydroxyethyl)-3,4-dihydroxy-2-(hydroxymethyl)tetrahydro-1H-selenophen-1-ium Chloride], for which the figures for the IC50 at rat intestinal maltase and at rat intestinal sucrase were 0.71 ± 0.21 µM and 0.22 ± 0.05 µM, respectively.

Turning to `OC[C@@H]1[C@@H](O)[C@H](O)C[Se@+]1C[C@@H](O)[C@H]1OC(c2cc(F)cc(Cl)c2)OC[C@H]1O` (stereo partly drawn) [20h, (1S,2R,3S,4S)-1-((2S)-2-((4S,5R)-2-(3-Chloro-5-fluorophenyl)-5-hydroxy-1,3-dioxan-4-yl)-2-hydroxyethyl)-3,4-dihydroxy-2-(hydroxymethyl)tetrahydro-1H-selenophen-1-ium chloride], the IC50 at rat intestinal maltase came to 3.67 ± 0.89 µM; against rat intestinal sucrase it was 1.96 ± 0.25 µM.

In the case of `OC[C@@H]1[C@@H](O)[C@H](O)C[Se@+]1C[C@@H](O)[C@H]1OC(c2cc(C(F)(F)F)cc(C(F)(F)F)c2)OC[C@H]1O` (stereo partly drawn) [20i, (1S,2R,3S,4S)-1-((2S)-2-((4S,5R)-2-(3,5-Bis(trifluoromethyl)phenyl)-5-hydroxy-1,3-dioxan-4-yl)-2-hydroxyethyl)-3,4-dihydroxy-2-(hydroxymethyl)tetrahydro-1H-selenophen-1-ium chloride], the half-maximal inhibitory concentration (IC50) on rat intestinal maltase worked out at 1.01 ± 0.32 µM; against rat intestinal sucrase, 0.41 ± 0.11 µM.

Values taken from PMC12250965, “Design and Synthesis of Sulfonium and Selenonium Derivatives Bearing 3′,5′-O-Benzylidene Acetal Side Chain Structure as Potent α-Glucosidase Inhibitors” (Molecules, 2025).
